Where two headings read alike, the source gives them in different places.

Assay [1] has as its target wild-type un-phosphorylated FGFR3 (Homo sapiens, UniProt P22607). Briefly: FGFR Enzymatic Assay (FRET peptide phosphorylation), FGFR3.
Method: The inhibitor potency of the exemplified compounds was determined in an enzyme discontinuous assay that measures peptide phosphorylation using FRET measurements to detect product formation. Inhibitors were serially diluted in DMSO and a volume of 0.2 μL was transferred to the wells of a 384-well plate. […] Appropriate controls (enzyme blank and enzyme with no inhibitor) were included on the plate. […] The 10 μL/well reaction concentration of the peptide substrate was 500 nM whereas the ATP concentration was maintained near or below the ATP Km. The ATP Km values were pre-determined in a separate series of experiments. The reaction plate was incubated at 25° C. for 1 hr and the reactions were ended with the addition of 5 μL/well of quench solution (50 mM Tris, 150 mM NaCl, 0.5 mg/mL BSA, pH 7.8; 45 mM EDTA, 600 nM staurosporin, with Perkin Elmer Lance Reagents at 3.75 nM Eu-antibody PY20 and 180 nM APC-Streptavidin). The plate was allowed to equilibrate for ˜10 minutes at ambient temperature before scanning on a PheraStar plate reader (BMG Labtech) instrument.
Either GraphPad prism or XLfit was used to analyze the data. The IC50 values were derived by fitting the data to a four parameter logistic equation producing a sigmoidal dose-response curve with a variable Hill coefficient. Prism equation: Y=Bottom+(Top-Bottom)/(1+10^((Log IC50-X)*Hill slope)); XLfit equation: Y=(A+((B−A)/(1+((X/C)^D)))) where X is the logarithm of inhibitor concentration and Y is the response.
GraphPad prism3 was used to analyze the data. The IC50 values were derived by fitting the data to the equation for a sigmoidal dose-response with a variable slope. Y=Bottom+(Top-Bottom)/(1+10^((Log IC50-X)*Hill Slope)) where X is the logarithm of concentration and Y is the response.
For assay [2], the target named is wild-type un-phosphorylated FGFR1 (Homo sapiens, UniProt P11362). Briefly: FGFR Enzymatic Assay (FRET peptide phosphorylation), FGFR1. The note with it: pre-incubated for 4 hours.
The target in assay [3] is wild-type un-phosphorylated FGFR2 (Homo sapiens, UniProt P21802). The assay can be described thus: FGFR Enzymatic Assay (FRET peptide phosphorylation), FGFR2.
Chain of wild-type un-phosphorylated FGFR2 (P21802 22-821): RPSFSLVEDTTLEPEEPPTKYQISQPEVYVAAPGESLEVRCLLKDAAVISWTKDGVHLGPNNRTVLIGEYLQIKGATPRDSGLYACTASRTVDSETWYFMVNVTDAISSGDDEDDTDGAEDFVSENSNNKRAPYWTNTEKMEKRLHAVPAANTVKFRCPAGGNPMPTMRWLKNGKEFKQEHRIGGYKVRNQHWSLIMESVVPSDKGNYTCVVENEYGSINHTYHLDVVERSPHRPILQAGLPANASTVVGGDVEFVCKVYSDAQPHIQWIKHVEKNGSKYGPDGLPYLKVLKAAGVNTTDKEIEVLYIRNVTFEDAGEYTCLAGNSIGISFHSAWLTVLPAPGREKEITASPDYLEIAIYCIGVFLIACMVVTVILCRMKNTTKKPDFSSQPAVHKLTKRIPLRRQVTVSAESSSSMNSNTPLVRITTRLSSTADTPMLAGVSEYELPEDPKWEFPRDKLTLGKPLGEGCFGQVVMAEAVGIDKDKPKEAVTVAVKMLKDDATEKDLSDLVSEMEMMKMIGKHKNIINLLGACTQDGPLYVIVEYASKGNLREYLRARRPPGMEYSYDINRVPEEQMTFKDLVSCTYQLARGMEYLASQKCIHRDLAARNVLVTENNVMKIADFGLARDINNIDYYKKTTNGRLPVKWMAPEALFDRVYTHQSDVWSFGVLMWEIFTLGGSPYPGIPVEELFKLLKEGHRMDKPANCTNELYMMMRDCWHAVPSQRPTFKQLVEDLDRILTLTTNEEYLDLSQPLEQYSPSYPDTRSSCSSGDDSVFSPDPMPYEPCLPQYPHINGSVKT
Setting [4] is: FGFR1, wild-type un-phosphorylated FGFR1.
[5] abbreviates: read-out: FGFR1, wild-type un-phosphorylated FGFR1.
[6] abbreviates: read-out: FGFR2, wild-type un-phosphorylated FGFR2, pre-incubated for 4 hours.
Where [7] appears, read: read-out: FGFR3, wild-type un-phosphorylated FGFR3, pre-incubated for 4 hours.

Chain of wild-type un-phosphorylated FGFR3 (P22607 23-806): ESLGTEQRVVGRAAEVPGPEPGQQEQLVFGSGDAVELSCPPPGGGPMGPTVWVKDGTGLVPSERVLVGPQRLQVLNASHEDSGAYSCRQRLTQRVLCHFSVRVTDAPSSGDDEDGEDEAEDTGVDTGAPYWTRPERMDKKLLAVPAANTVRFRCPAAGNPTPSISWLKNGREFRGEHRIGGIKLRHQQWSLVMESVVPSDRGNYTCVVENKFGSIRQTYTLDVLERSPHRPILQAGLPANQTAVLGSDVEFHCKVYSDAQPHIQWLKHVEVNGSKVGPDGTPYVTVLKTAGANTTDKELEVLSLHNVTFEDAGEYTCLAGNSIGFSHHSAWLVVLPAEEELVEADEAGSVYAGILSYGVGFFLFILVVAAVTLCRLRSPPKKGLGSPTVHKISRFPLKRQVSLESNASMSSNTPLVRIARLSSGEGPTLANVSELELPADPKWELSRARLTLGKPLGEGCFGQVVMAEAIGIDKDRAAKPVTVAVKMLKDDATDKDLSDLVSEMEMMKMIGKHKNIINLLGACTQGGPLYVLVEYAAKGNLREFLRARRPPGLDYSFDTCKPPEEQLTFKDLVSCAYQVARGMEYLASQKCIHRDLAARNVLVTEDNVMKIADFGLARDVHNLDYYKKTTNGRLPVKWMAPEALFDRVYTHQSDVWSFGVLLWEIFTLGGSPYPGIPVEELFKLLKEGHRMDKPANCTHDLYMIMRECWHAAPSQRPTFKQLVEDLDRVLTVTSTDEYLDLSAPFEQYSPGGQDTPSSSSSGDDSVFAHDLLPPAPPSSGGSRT
Chain of wild-type un-phosphorylated FGFR1 (P11362 22-822): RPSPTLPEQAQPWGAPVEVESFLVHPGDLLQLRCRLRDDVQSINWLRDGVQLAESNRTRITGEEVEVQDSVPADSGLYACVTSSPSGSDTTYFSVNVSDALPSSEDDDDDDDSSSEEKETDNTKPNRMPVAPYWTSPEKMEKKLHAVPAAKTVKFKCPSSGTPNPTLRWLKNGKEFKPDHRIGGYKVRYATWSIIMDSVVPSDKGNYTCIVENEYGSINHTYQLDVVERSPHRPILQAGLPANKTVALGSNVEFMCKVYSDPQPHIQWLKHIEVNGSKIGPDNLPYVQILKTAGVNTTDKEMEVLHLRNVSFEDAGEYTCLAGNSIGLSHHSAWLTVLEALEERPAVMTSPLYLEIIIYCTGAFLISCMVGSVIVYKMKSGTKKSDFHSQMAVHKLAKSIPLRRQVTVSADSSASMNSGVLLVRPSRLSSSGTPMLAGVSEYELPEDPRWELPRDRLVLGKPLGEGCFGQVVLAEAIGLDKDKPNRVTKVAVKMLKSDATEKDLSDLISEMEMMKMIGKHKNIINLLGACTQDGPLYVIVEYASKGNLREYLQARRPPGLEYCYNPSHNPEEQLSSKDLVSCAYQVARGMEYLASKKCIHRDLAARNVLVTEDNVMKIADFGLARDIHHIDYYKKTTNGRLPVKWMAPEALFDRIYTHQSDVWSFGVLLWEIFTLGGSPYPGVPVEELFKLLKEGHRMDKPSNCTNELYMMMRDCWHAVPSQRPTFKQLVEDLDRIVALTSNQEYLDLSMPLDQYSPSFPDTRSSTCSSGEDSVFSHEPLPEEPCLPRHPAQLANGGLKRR

Regarding `COC(=O)N1CCC(n2cc(-c3n[nH]c4cc(OC)c(-c5cccc(C)c5C)nc34)cn2)CC1` [Example 70, Methyl 4-(4-(5-(2,3-dimethylphenyl)-6-methoxy-1H-pyrazolo[4,3-b]pyridin-3-yl)-1H-pyrazol-1-yl)piperidine-1-carboxylate], the IC50 is < 6 nM in assay [1] and > 100 nM in assay [2] (setting [4]).

Consider `COc1cc2[nH]nc(-c3cnn([C@H]4CC[C@@H](NC(C)=O)CC4)c3)c2nc1-c1cccc2c1CCC2` [Example 53, N-((cis)-4-(4-(5-(2,3-Dihydro-1H-inden-4-yl)-6-methoxy-1H-pyrazolo[4,3-b]pyridin-3-yl)-1H-pyrazol-1-yl)cyclohexyl)acetamide], for which the IC50 in assay [1] is < 6 nM; in assay [2] (setting [4]), 40 to 100 nM.

For `COc1cc2[nH]nc(-c3cnn(C45CC4CN(C(=O)CO)C5)c3)c2nc1-c1cccc2c1CCC2` (stereo not drawn) [Example 197, 1-(1-(4-(5-(2,3-Dihydro-1H-inden-4-yl)-6-methoxy-1H-pyrazolo[4,3-b]pyridin-3-yl)-1H-pyrazol-1-yl)-3-azabicyclo[3.1.0]hexan-3-yl)-2-hydroxyethan-1-one], the IC50 is < 6 nM in assay [3], < 6 nM in assay [1] and 6 to 40 nM in assay [2] (setting [5]).

In the case of `COc1cc2[nH]nc(-c3cnn(-c4ccncc4)c3)c2nc1-c1cccc2c1CCC2` [Example 32, 5-(2,3-Dihydro-1H-inden-4-yl)-6-methoxy-3-(1-(pyridin-4-yl)-1H-pyrazol-4-yl)-1H-pyrazolo[4,3-b]pyridine], the IC50 in assay [1] was < 6 nM; in assay [2] (setting [4]) it was > 100 nM.

As for `COc1cc2[nH]nc(-c3ccc(C45CC4CN(C(=O)CO)C5)nc3)c2nc1-c1cccc2c1CCC2` (single isomer, unassigned) [Example 191C, 1-(1-(5-(5-(2,3-Dihydro-1H-inden-4-yl)-6-methoxy-1H-pyrazolo[4,3-b]pyridin-3-yl)pyridin-2-yl)-3-azabicyclo[3.1.0]hexan-3-yl)-2-hydroxyethan-1-one], the IC50 in assay [3] (setting [6]) was < 6 nM; in assay [1] (setting [7]), < 6 nM; in assay [2] (setting [5]), 6 to 40 nM.

For the molecule `COc1cc2[nH]nc(-c3ccc(C45CC4CN(CCO)C5)nc3)c2nc1-c1cccc2c1CCC2` (single isomer, unassigned) [Example 194C, 2-(1-(5-(5-(2,3-Dihydro-1H-inden-4-yl)-6-methoxy-1H-pyrazolo[4,3-b]pyridin-3-yl)pyridin-2-yl)-3-azabicyclo[3.1.0]hexan-3-yl)ethan-1-ol], the IC50 in assay [3] (setting [6]) is < 6 nM; in assay [1] (setting [7]) it was < 6 nM; in assay [2] (setting [5]), 6 to 40 nM.

Take `COc1cc2[nH]nc(-c3ccc(N4CCN5C[C@H](O)C[C@H]5C4)nc3)c2nc1-c1cccc(OC)c1C` [Example 90, (7R,8aS)-2-(5-(6-Methoxy-5-(3-methoxy-2-methylphenyl)-1H-pyrazolo[4,3-b]pyridin-3-yl)pyridin-2-yl)octahydropyrrolo[1,2-a]pyrazin-7-ol]: the IC50 was 6 to 40 nM in assay [3] (setting [6]), < 6 nM in assay [1] and > 100 nM in assay [2] (setting [4]).

On to `Cn1cc(-c2n[nH]c3cc(C(F)F)c(-c4cccc5c4CCC5)nc23)cn1` [Example 35, 6-(Difluoromethyl)-5-(2,3-dihydro-1H-inden-4-yl)-3-(1-methyl-1H-pyrazol-4-yl)-1H-pyrazolo[4,3-b]pyridine], for which the figures for the IC50 in assay [1] and in assay [2] (setting [4]) were < 6 nM and 40 to 100 nM, respectively.

Turning to `COc1cc2[nH]nc(-c3ccc(C4CCC(C(=O)O)CC4)nc3)c2nc1-c1cccc(C)c1C` (stereo not drawn) [Example 79, 4-(5-(5-(2,3-Dimethylphenyl)-6-methoxy-1H-pyrazolo[4,3-b]pyridin-3-yl)pyridin-2-yl)cyclohexane-1-carboxylic acid], the IC50 in assay [3] is < 6 nM; in assay [1], < 6 nM; in assay [2] (setting [4]) it was 40 to 100 nM.

`COc1cc2[nH]nc(-c3cnn(C4CC4)c3)c2nc1-c1cccc(C)c1C` [Example 67, 3-(1-Cyclopropyl-1H-pyrazol-4-yl)-5-(2,3-dimethylphenyl)-6-methoxy-1H-pyrazolo[4,3-b]pyridine]: the IC50 in assay [1] was < 6 nM; in assay [2] (setting [4]), > 100 nM.

Turning to `COc1cc2[nH]nc(-c3cnn(C4CCN(C(C)=O)CC4)c3)c2nc1-c1cccc(C)c1C` [Example 69, 1-(4-(4-(5-(2,3-Dimethylphenyl)-6-methoxy-1H-pyrazolo[4,3-b]pyridin-3-yl)-1H-pyrazol-1-yl)piperidin-1-yl)ethan-1-one], the IC50 in assay [1] is < 6 nM; in assay [2] (setting [4]), > 100 nM.

As to `CCN1CCC(n2cc(-c3n[nH]c4cc(OC)c(-c5cccc6c5CCC6)nc34)cn2)C1` (stereo not drawn) [Example 15, 5-(2,3-Dihydro-1H-inden-4-yl)-3-(1-(1-ethylpyrrolidin-3-yl)-1H-pyrazol-4-yl)-6-methoxy-1H-pyrazolo[4,3-b]pyridine], the IC50 in assay [1] is < 6 nM; in assay [2] (setting [4]) it was 40 to 100 nM.

In the case of `COc1cc2[nH]nc(-c3cnn(C)c3)c2nc1-c1cccc2c1CCC2C#N` (stereo not drawn) [Example 9, 4-(6-Methoxy-3-(1-methyl-1H-pyrazol-4-yl)-1H-pyrazolo[4,3-b]pyridin-5-yl)-2,3-dihydro-1H-indene-1-carbonitrile], the IC50 is < 6 nM in assay [1] and 40 to 100 nM in assay [2] (setting [4]).

`COc1cc2[nH]nc(-c3ccc(N4CC[C@H](N(C)C(=O)CO)C4)nc3)c2nc1-c1cccc(C)c1C` [Example 88, (S)-N-(1-(5-(5-(2,3-Dimethylphenyl)-6-methoxy-1H-pyrazolo[4,3-b]pyridin-3-yl)pyridin-2-yl)pyrrolidin-3-yl)-2-hydroxy-N-methylacetamide]: the figures for the IC50 in assay [1] and in assay [2] (setting [4]) were < 6 nM and 40 to 100 nM, respectively.

For `COc1cc2[nH]nc(-c3ccc(N4CCN(C(C)=O)CC4)nc3)c2nc1-c1cccc2c1CCC2` [Example 64, 1-(4-(5-(5-(2,3-Dihydro-1H-inden-4-yl)-6-methoxy-1H-pyrazolo[4,3-b]pyridin-3-yl)pyridin-2-yl)piperazin-1-yl)ethan-1-one], the IC50 in assay [1] was < 6 nM; in assay [2] (setting [5]) it was 6 to 40 nM.

With `COc1cc2[nH]nc(-c3ccc(N4CCN(C(C)=O)CC4)nc3)c2nc1-c1cccc(CC#N)c1C` [Example 55, 2-(3-(3-(6-(4-Acetylpiperazin-1-yl)pyridin-3-yl)-6-methoxy-1H-pyrazolo[4,3-b]pyridin-5-yl)-2-methylphenyl)acetonitrile], the IC50 in assay [1] is < 6 nM; in assay [2] (setting [4]) it was > 100 nM.

On to `COC(=O)N1CC(n2cc(-c3n[nH]c4cc(OC)c(-c5cccc(C)c5C)nc34)cn2)C1` [Example 71, Methyl 3-(4-(5-(2,3-dimethylphenyl)-6-methoxy-1H-pyrazolo[4,3-b]pyridin-3-yl)-1H-pyrazol-1-yl)azetidine-1-carboxylate], for which the results for the IC50 in assay [1] and in assay [2] (setting [4]) were < 6 nM and > 100 nM, respectively.

Consider `CCOc1cc2[nH]nc(-c3cnn(C)c3)c2nc1-c1cccc2c1CCC2` [Example 26, 5-(2,3-Dihydro-1H-inden-4-yl)-6-ethoxy-3-(1-methyl-1H-pyrazol-4-yl)-1H-pyrazolo[4,3-b]pyridine], for which the IC50 is < 6 nM in assay [1] and > 100 nM in assay [2] (setting [4]).

On to `COc1cc2[nH]nc(-c3ccc(N4C[C@@H]5C[C@H]4CN5C)nc3)c2nc1-c1cccc(C)c1C` [Example 49, 5-(2,3-Dimethylphenyl)-6-methoxy-3-(6-((1S,4S)-5-methyl-2,5-diazabicyclo[2.2.1]heptan-2-yl)pyridin-3-yl)-1H-pyrazolo[4,3-b]pyridine], for which the IC50 was < 6 nM in assay [1] and 40 to 100 nM in assay [2] (setting [4]).

Consider `COc1cc2[nH]nc(-c3ccc(N4CCN(C)CC4C)nc3)c2nc1-c1cccc2c1CCC2` (stereo not drawn) [Example 54, 5-(2,3-Dihydro-1H-inden-4-yl)-3-(6-(2,4-dimethylpiperazin-1-yl)pyridin-3-yl)-6-methoxy-1H-pyrazolo[4,3-b]pyridine], for which the IC50 in assay [1] is < 6 nM; in assay [2] (setting [4]) it was 40 to 100 nM.

Take `COc1cc2[nH]nc(-c3cnn(C4CCNC4)c3)c2nc1-c1cccc2c1CCC2` (stereo not drawn) [Example 14, 5-(2,3-Dihydro-1H-inden-4-yl)-6-methoxy-3-(1-(pyrrolidin-3-yl)-1H-pyrazol-4-yl)-1H-pyrazolo[4,3-b]pyridine]: the IC50 is < 6 nM in assay [1] and 40 to 100 nM in assay [2] (setting [4]).

Regarding `CNc1cc2[nH]nc(-c3cnn(C)c3)c2nc1-c1cccc2c1CCC2` [Example 37, 5-(2,3-Dihydro-1H-inden-4-yl)-N-methyl-3-(1-methyl-1H-pyrazol-4-yl)-1H-pyrazolo[4,3-b]pyridin-6-amine], the IC50 in assay [1] was < 6 nM; in assay [2] (setting [4]), > 100 nM.

`COc1cc2[nH]nc(-c3cnn(C)c3)c2nc1-c1cccc2c1CCC2O` (single isomer, unassigned) [Example 7, 4-(6-Methoxy-3-(1-methyl-1H-pyrazol-4-yl)-1H-pyrazolo[4,3-b]pyridin-5-yl)-2,3-dihydro-1H-inden-1-ol]: the IC50 in assay [1] is < 6 nM; in assay [2] (setting [4]), 40 to 100 nM.

Take `COc1cc2[nH]nc(-c3cnn(C)c3)c2nc1-c1cccc2c1C[C@H](F)[C@@H]2O` [Example 13, 2-Fluoro-4-(6-methoxy-3-(1-methyl-1H-pyrazol-4-yl)-1H-pyrazolo[4,3-b]pyridin-5-yl)-2,3-dihydro-1H-inden-1-ol]: the IC50 in assay [1] was < 6 nM; in assay [2] (setting [4]) it was > 100 nM.

`COc1cc2[nH]nc(-c3cnn(C)c3)c2nc1-c1cccc2c1CCC2O` (single isomer, unassigned) [Example 8, 4-(6-Methoxy-3-(1-methyl-1H-pyrazol-4-yl)-1H-pyrazolo[4,3-b]pyridin-5-yl)-2,3-dihydro-1H-inden-1-ol]: the IC50 was < 6 nM in assay [1] (setting [7]) and > 100 nM in assay [2] (setting [4]).

For `COc1cc2[nH]nc(-c3ccc(N4CCN(C)[C@H](C)C4)nc3)c2nc1-c1cccc(C)c1C` [Example 47, (R)-5-(2,3-Dimethylphenyl)-3-(6-(3,4-dimethylpiperazin-1-yl)pyridin-3-yl)-6-methoxy-1H-pyrazolo[4,3-b]pyridine], the IC50 in assay [1] is < 6 nM; in assay [2] (setting [4]), 40 to 100 nM.

The values above are taken from patent US12083124B2 (Incyte Corporation, priority 2019, dated 2024).
